# Source: BindingDB's records for doi:10.7270/Q29G5K5D (Cc_Pmlsc, 2007)
# Biological target: T1, Dual specificity protein phosphatase 1 (Homo sapiens, UniProt P28562)
# T1 sequence (P28562 whole entry): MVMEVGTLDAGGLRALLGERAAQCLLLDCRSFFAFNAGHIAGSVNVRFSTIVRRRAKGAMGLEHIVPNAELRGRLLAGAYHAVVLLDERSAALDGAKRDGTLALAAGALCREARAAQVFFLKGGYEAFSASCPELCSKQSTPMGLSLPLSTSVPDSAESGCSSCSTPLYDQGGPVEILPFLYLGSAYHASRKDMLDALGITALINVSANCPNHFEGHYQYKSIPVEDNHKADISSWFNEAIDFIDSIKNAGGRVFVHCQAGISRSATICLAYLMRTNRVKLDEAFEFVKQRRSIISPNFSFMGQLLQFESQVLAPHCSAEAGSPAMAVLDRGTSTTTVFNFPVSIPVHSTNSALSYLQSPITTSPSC
# Assay: MKP-1 phosphatase inhibitors, SAR follow-up, biochemical, in vitro (AID 579)
# Details: pH 7; 23 °C
row,Compound,IC50 [µM]
1,"Cn1c(N)c(C(=O)COC(=O)c2cc(-c3ccccc3)nc3ccccc23)c(=O)n(Cc2ccccc2)c1=O [2-phenyl-4-quinolinecarboxylic acid [2-[6-amino-1-methyl-2,4-dioxo-3-(phenylmethyl)-5-pyrimidinyl]-2-oxoethyl] ester]",> 50
2,"Cn1c(N)c(C(=O)COC(=O)c2ccnc3ccccc23)c(=O)n(C)c1=O [4-quinolinecarboxylic acid [2-(4-amino-1,3-dimethyl-2,6-dioxo-5-pyrimidinyl)-2-oxoethyl] ester]",> 50
3,"Nc1cc(=O)[nH]c(=O)n1Cc1ccccc1 [6-amino-1-benzylpyrimidine-2,4-dione]",> 50
4,"Cn1c(N)c(C(=O)CCl)c(=O)n(C)c1=O [6-amino-5-(2-chloro-1-oxoethyl)-1,3-dimethylpyrimidine-2,4-dione]",> 50
5,"Cn1c(=O)c(C(=O)CCl)c(N)n(CC2CC2)c1=O [6-amino-5-(2-chloro-1-oxoethyl)-1-(cyclopropylmethyl)-3-methylpyrimidine-2,4-dione]",> 50
6,"CC(C)Cn1c(N)c(C(=O)CCl)c(=O)n(C)c1=O [6-amino-5-(2-chloro-1-oxoethyl)-3-methyl-1-(2-methylpropyl)pyrimidine-2,4-dione]",> 50
7,CN(C)C=Nc1cc(=O)[nH]c(=O)n1CC1CC1 [CC-PMLSC- DMA-P139],> 50
8,CN(C)/C=N/c1cc(=O)n(C)c(=O)n1Cc1ccccc1 [CC-PMLSC-DMA-P129],> 50
9,CN(C)/C=N/c1cc(=O)n(Cc2ccccc2)c(=O)n1C [CC-PMLSC-DMA-P131],> 50
10,"CN(C)C=Nc1cc(=O)[nH]c(=O)n1Cc1ccccc1 [N'-[2,6-dioxo-3-(phenylmethyl)-4-pyrimidinyl]-N,N-dimethylmethanimidamide]",> 50

# Continued, values first:
row,IC50 [µM],Compound
1,> 50,"FC(F)(F)c1cc(Br)c2cccc(C(F)(F)F)c2n1 [4-bromanyl-2,8-bis(trifluoromethyl)quinoline]"
2,> 50,"Cn1c(=O)cc(N)n(Cc2ccccc2)c1=O [6-amino-1-benzyl-3-methyl-pyrimidine-2,4-quinone]"
3,> 50,"Cn1c(=O)c(C(=O)CCl)c(N)n(Cc2ccccc2)c1=O [6-amino-1-benzyl-5-(2-chloroacetyl)-3-methyl-pyrimidine-2,4-quinone]"
4,> 50,"Cn1c(N)cc(=O)n(Cc2ccccc2)c1=O [6-amino-1-methyl-3-(phenylmethyl)pyrimidine-2,4-dione]"
5,> 50,"Cn1c(N)c(C(=O)CCl)c(=O)n(Cc2ccccc2)c1=O [6-amino-3-benzyl-5-(2-chloroacetyl)-1-methyl-pyrimidine-2,4-quinone]"
6,> 50,NC(=O)NCc1ccccc1 [(phenylmethyl)urea]
7,> 50,CN(C)/C=N/c1cc(=O)n(C)c(=O)n1CC1CC1 [CC-PMLSC-DMA-P142]
8,> 50,"CN(C)C=Nc1cc(=O)[nH]c(=O)n1C [N,N-dimethyl-N'-(3-methyl-2,6-dioxo-4-pyrimidinyl)methanimidamide]"
9,13.4,"Cn1c(=O)c(C(=O)COC(=O)c2cc(-c3ccco3)nc3ccccc23)c(N)n(Cc2ccccc2)c1=O [[2-(6-amino-1-benzyl-3-methyl-2,4-dioxopyrimidin-5-yl)-2-oxoethyl] 2-(furan-2-yl)quinoline-4-carboxylate]"
